Experimental data: ChEMBL document CHEMBL3596135, “A critical evaluation of pyrrolo[2,3-d]pyrimidine-4-amines as Plasmodium falciparum apical membrane antigen 1 (AMA1) inhibitors” (Medchemcomm, 2014)
Where a name gives a salt, the structure may show the parent alone. Calls of active or inactive are those of the source. The calls are words filed in the database; no cut-off is given here.

Tests used:
[1] = target: T1, Apical membrane antigen 1 (Plasmodium falciparum (isolate 3D7), UniProt Q7KQK5); test: Binding affinity to Plasmodium falciparum 3D7 AMA1 (104 to 442) by SPR analysis
T1 sequence (Q7KQK5 whole entry): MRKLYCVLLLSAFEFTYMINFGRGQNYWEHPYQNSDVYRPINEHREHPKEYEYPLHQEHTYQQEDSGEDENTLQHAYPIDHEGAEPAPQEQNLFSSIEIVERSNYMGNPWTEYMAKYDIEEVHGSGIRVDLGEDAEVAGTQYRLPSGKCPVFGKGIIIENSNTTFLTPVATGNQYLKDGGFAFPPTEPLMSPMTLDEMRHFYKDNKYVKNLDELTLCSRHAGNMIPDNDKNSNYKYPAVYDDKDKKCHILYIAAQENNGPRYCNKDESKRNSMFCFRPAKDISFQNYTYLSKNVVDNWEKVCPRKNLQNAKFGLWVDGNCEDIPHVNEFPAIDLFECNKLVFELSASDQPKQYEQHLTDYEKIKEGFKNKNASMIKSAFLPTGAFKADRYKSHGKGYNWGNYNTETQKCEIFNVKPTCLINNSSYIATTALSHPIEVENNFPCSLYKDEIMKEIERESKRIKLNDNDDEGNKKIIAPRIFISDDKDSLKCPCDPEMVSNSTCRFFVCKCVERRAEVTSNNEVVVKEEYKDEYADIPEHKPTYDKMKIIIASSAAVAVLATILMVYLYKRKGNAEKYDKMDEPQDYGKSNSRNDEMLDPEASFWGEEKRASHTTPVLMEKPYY

[2] = Self-aggregating activity of the compound in phosphate buffer at pH 7.4 at 80 uM by 1D 1H-NMR spectroscopic analysis in presence of Tween 20; assay type: physicochemical; settings: pH 7.4, 80 µM
[3] = Self-aggregating activity of the compound in phosphate buffer at pH 7.4 at 5 to 80 uM by 1D 1H-NMR spectroscopic analysis in absence of Tween 20; assay type: physicochemical; settings: pH 7.4, 80 µM
Plasmodium falciparum [4] = test: Antimalarial activity against synchronised early trophozoite stage of Plasmodium falciparum 3D7 assessed as parasite growth inhibition measured after two invasion cycles by flow cytometric analysis; assay type: functional, organism-based
[5] = Solubility of the compound in phosphate buffer at pH 7.4; assay type: physicochemical
Plasmodium falciparum [6] = test: Antimalarial activity against Plasmodium falciparum FVO schizont infected in RBC assessed as inhibition of merozoite invasion after 3 to 4 hrs by flow cytometric analysis; assay type: functional, organism-based
[7] = target: T2, Apical membrane antigen 1 (Plasmodium falciparum (isolate 3D7)) (UniProt Q7KQK5); test: Competitive binding affinity to Plasmodium falciparum 3D7 AMA1 (104 to 442) at 80 uM after 200 milisecs by CPMG binding assay in presence of R1 peptide and absence of detergent
T2 sequence (whole entry): T1 sequence (Q7KQK5 whole entry)

[8] = target: T2, Apical membrane antigen 1 (Plasmodium falciparum (isolate 3D7)); test: Competitive binding affinity to Plasmodium falciparum 3D7 AMA1 (104 to 442) at 80 uM after 200 milisecs by CPMG binding assay in presence of RON2 peptide and Tween 20
[9] = target: T2, Apical membrane antigen 1 (Plasmodium falciparum (isolate 3D7)); test: Competitive binding affinity to Plasmodium falciparum 3D7 AMA1 (104 to 442) at 80 uM after 200 milisecs by CPMG binding assay in presence of RON2 peptide and absence of detergent
[10] = target: T2, Apical membrane antigen 1 (Plasmodium falciparum (isolate 3D7)); test: Competitive binding affinity to Plasmodium falciparum 3D7 AMA1 (104 to 442) at 80 uM after 200 milisecs by CPMG binding assay in presence of R1 peptide and Tween 20
[11] = target: T1, Apical membrane antigen 1; test: Binding affinity to recombinant His-tagged Plasmodium falciparum 3D7 AMA1 assessed as inhibition of interaction with biotin-tagged RON2 peptide after 30 mins by AlphaScreen assay
[12] = target: T2, Apical membrane antigen 1 (Plasmodium falciparum (isolate 3D7)); test: Binding affinity to Plasmodium falciparum 3D7 AMA1 (104 to 442) up to 200 uM by SPR analysis

Structure (SMILES) | Kd [1] [µM] | Activity [2] | Activity [3] | solubility [5] | growth inhibition (GI) (Plasmodium falciparum [4]) | further results
COc1ccc(-c2cn(C)c3ncnc(N)c23)cc1 | ≥ 1000 | Not Active | Not Active | soluble | Active | 
COc1cccc(-c2cn(C)c3ncnc(N)c23)c1 | ≥ 1000 | Not Active | Not Active | soluble | Active | 
Cn1cc(-c2ccncc2)c2c(N)ncnc21 | ≥ 1000 | Not Active | Not Active | soluble | Active | 
Nc1ncnc2c1c(-c1ccc(Oc3ccccc3)cc1)cn2C1CCCC1 | ≥ 1000 | Not Active | Active | soluble |  | IC50 (Plasmodium falciparum [6]): 30 µM; IC50 (Plasmodium falciparum [4]): > 1000 µM
COc1ccc(-c2cn(C3CCCC3)c3ncnc(N)c23)cc1 | ≥ 1000 | Not Active | Not Active | soluble |  | Activity [7]: Active; Activity [8]: Active; IC50 (Plasmodium falciparum [6]): 9.8 µM; Activity [9]: Active; Activity [10]: Active; IC50 (Plasmodium falciparum [4]): 63 µM
Clc1cccc(C(c2ccc3[nH]cnc3c2)n2ccnc2)c1 (stereo unspecified) [LIAROZOLE HYDROCHLORIDE] |  |  |  |  |  | IC50 [11]: 29 µM
CCn1cc(-c2ccc(OC)cc2)c2c(N)ncnc21 | ≥ 1000 | Not Active | Not Active | soluble | Active | 
CN(C)CCCN1c2ccccc2C(C)(C)c2ccccc21 [DIMETACRINE] |  |  |  |  |  | IC50 [11]: 28 µM
Clc1ncnc2c1c(Br)cn2C1CCCC1 |  |  |  |  |  | Activity [12]: inactive
Clc1[nH]cnc2nccc1-2 |  |  |  |  |  | Activity [12]: inactive
Cn1cc(-c2ccc(N)cc2)c2c(N)ncnc21 | ≥ 1000 | Not Active | Not Active | soluble | Active | 
CN(C)c1ncnc2c1c(-c1ccc(Oc3ccccc3)cc1)cn2C1CCCC1 | ≥ 1000 | Not Active | Active | soluble |  | IC50 (Plasmodium falciparum [6]): 6 µM; IC50 (Plasmodium falciparum [4]): > 1000 µM

More lines, main results first:

Kd [1] [µM] | Activity [2] | Activity [3] | solubility [5] | Structure (SMILES) | growth inhibition (GI) (Plasmodium falciparum [4]) | further results
≥ 1000 | Not Active | Not Active | soluble | Cn1cc(-c2ccccc2F)c2c(N)ncnc21 | Active | 
≥ 1000 | Not Active | Not Active | soluble | Cn1cc(-c2ccc(F)cc2)c2c(N)ncnc21 | Active | 
≥ 1000 | Not Active | Not Active | soluble | Cn1cc(-c2cccc(F)c2)c2c(N)ncnc21 |  | IC50 (Plasmodium falciparum [4]): < 31 µM
≥ 1000 | Not Active | Not Active | soluble | Cn1cc(-c2ccccc2)c2c(N)ncnc21 | Active | 
≥ 1000 | Not Active | Not Active | soluble | COc1ccccc1-c1cn(C)c2ncnc(N)c12 | Active | 
≥ 1000 | Not Active | Not Active | soluble | Cn1cc(-c2cccc(N)c2)c2c(N)ncnc21 | Active | 
